From patent US20210276967A1 (OSPEDALE SAN RAFFAELE S.R.L., priority 2018, published 2021)

test system: HBV; experiment: HBV inhibition in HepAD38 cells, extracellular HBV DNA by direct qPCR; format: cell-based, hepatitis B virus; details: Hepatitis B virus; 0.1 μM, HepAD38, 96 hours; read-out: HBV inhibition % (conc μM)
From the text: HepAD38 cell line (Ladner et al., Antimicrob Agents Chemother, 1997, 41, 1715-20) was used for HBV inhibition assays. HepAD38 is a subclone, derived from hepatoblastoma cell line HepG2 (ATCC® Number: HB-8065™), that expresses HBV genome under the transcriptional control of a tetracycline-responsive promoter in a TET-OFF system: addition of tetracycline (TET) or doxycycline suppresses HBV replication, while its removal switches on the process allowing HBV viral particles release in the cell supernatant. HepAD38 cell line is maintained in DMEM/F12, supplemented with 10% of fetal bovine serum, 1% of glutamine, 1% of penicillin/streptomycin, 0.4 mg/ml G418 and 0.3 ug/ml tetracycline. For the HBV inhibition assay, doxycycline-free medium is used in order to allow virion production.
HBV inhibition activity in vitro was performed in 96 multiwell plates. During the initial (primary) screening compounds were first tested in triplicates at concentrations of 0.1 μM, 0.5 μM and 1 μM. For selected compounds, an 8-point dose-response curve was obtained using 1:2 serial dilutions (starting from 2.5 μM, 1.25 μM or 0.4 μM, depending on the degree of inhibition observed during the primary screening). From the dose-response curves, half maximal effective concentration (EC50) could be calculated (see also below).
In more detail, compounds—typically dissolved in DMSO stock solutions—were diluted to 2× the final desired concentration in 100 μl of the above medium (without doxycycline) and plated in three replicates in the 96-well plates.
Simultaneously, HepAD38 cells—extensively pre-washed in tetracycline-free medium in order to induce HBV production—were suspended at 2*10^4 cells in 100 μl of tetracycline-free medium and added to each well of the plate, to yield a final assay volume of 200 μl.
DMSO, used for stock solutions and compounds dilutions, is always present in the assays at a final concentration of 0.5%.
Plates were then incubated 96 hours at 37° C. and then subjected to cell viability assays and extracellular HBV quantification, in order to evaluate both the cytotoxic potential and the anti-viral activity of compounds.
Cytotoxicity was assessed by a commercial fluorescence assay that measures the metabolic activity of cells, directly related to cell viability (Cell Titer Blue, Promega). For each compound, cytotoxicity was evaluated at the same concentration employed to evaluate its anti-HBV activity. Anti-HBV activity was evaluated by quantification of extracellular HBV DNA with direct qPCR. In particular, supernatant was collected and centrifuged for cell debris clarification, viral DNA was extracted from virions by addition of lysis buffer (1 mM 1,4-dithiothreitol, 0.2% sodium dodecyl sulphate) and incubated at 95° C. for 10 min. Samples were then diluted 1:40 and real time PCR amplification was performed with SYBR green assay (Power SYBR™ Green PCR Master Mix-Thermo Fisher Scientific) and specific HBV primer (HBV-DF:5′-[…]-3′ (SEQ ID No. 1), HBV-DR:5′-[…]-3′ (SEQ ID No. 2)).
All HBV inhibition or antiviral activity data are typically reported in percent (%) relative to a non-treated reference sample. Excel and Graphpad Prism programs are typically used for data elaboration and EC50 calculation.

| SMILES | inhibition at 0.1 µM [%] |
| --- | --- |
| Nc1ncc(C(=O)Nc2cc(F)c(F)c(F)c2)cc1S(=O)(=O)N[C@H]1CC[C@H](O)CC1 [Example E58, trans-6-amino-5-(N-(4-hydroxycyclohexyl)sulfamoyl)-N-(3,4,5-trifluorophenyl)nicotinamide] | < 50 |
| Cc1cc(N)c(S(N)(=O)=O)cc1C(=O)Nc1ccc(F)c(C(F)F)c1 [Example E68, 4-amino-N-(3-(difluoromethyl)-4-fluorophenyl)-2-methyl-5-sulfamoylbenzamide] | > 50 |
| Cc1cc(N)c(S(N)(=O)=O)cc1C(=O)Nc1cc(F)c(F)c(Cl)c1 [Example E65, 4-amino-N-(3-chloro-4,5-difluorophenyl)-2-methyl-5-sulfamoylbenzamide] | > 50 |

same assay, conditions: Hepatitis B virus; 0.5 μM, HepAD38, 96 hours; read-out: HBV inhibition % (conc μM)

| SMILES | inhibition at 0.5 µM [%] |
| --- | --- |
| Nc1ccc(C(=O)Nc2cc(F)c(F)c(F)c2)cc1S(=O)(=O)N1CCC(O)CC1 [Example E29, 4-amino-3-((4-hydroxypiperidin-1-yl)sulfonyl)-N-(3,4,5-trifluorophenyl)benzamide] | > 50 |
| Nc1ccc(C(=O)Nc2ccc(F)c(Cl)c2)cc1S(=O)(=O)N1CCC(O)CC1 [Example E54, 4-amino-N-(3-chloro-4-fluorophenyl)-3-((4-hydroxypiperidin-1-yl)sulfonyl)benzamide] | > 50 |
| Nc1ccc(C(=O)Nc2cc(F)c(F)c(F)c2)cc1S(=O)(=O)NC1(CO)COC1 [Example E38, 4-amino-3-(N-(3-(hydroxymethyl)oxetan-3-yl)sulfamoyl)-N-(3,4,5-trifluorophenyl)benzamide] | > 50 |
| Cc1cc(NC(=O)c2ccc(N)c(S(N)(=O)=O)c2)ccc1F [Example E12, 4-amino-N-(4-fluoro-3-methylphenyl)-3-sulfamoylbenzamide] | > 50 |
| Nc1ccc(C(=O)Nc2cc(F)c(F)c(F)c2)cc1S(=O)(=O)NC(CO)CO [Example E48, 4-amino-3-(N-(1,3-dihydroxypropan-2-yl)sulfamoyl)-N-(3,4,5-trifluorophenyl)benzamide] | < 50 |
| Nc1ccc(S(N)(=O)=O)cc1C(=O)Nc1cc(F)c(F)c(F)c1 [Example E59, 2-amino-5-sulfamoyl-N-(3,4,5-trifluorophenyl)benzamide] | < 50 |
| Nc1ccc(C(=O)Nc2cc(F)c(F)c(F)c2)cc1S(=O)(=O)N[C@@H]1CC[C@@H](O)C1 (stereo in doubt) [Example E26, 4-amino-3-(N-((1R,3R)-3-hydroxycyclopentyl)sulfamoyl)-N-(3,4,5-trifluorophenyl)benzamide] | > 50 |
| Nc1ccc(C(=O)Nc2cc(F)c(F)c(F)c2)cc1S(=O)(=O)N1CCC(O)C1 (stereo not shown) [Example E53, 4-amino-3-((3-hydroxypyrrolidin-1-yl)sulfonyl)-N-(3,4,5-trifluorophenyl)benzamide] | > 50 |
| Nc1ccc(C(=O)Nc2cc(F)c(F)c(F)c2)cc1S(=O)(=O)N[C@H]1CCNC1 [Example E35, (S)-4-amino-3-(N-(pyrrolidin-3-yl)sulfamoyl)-N-(3,4,5-trifluorophenyl)benzamide] | < 50 |
| Nc1ccc(C(=O)Nc2cc(F)c(F)c(F)c2)cc1S(=O)(=O)N[C@H]1CC[C@@H](O)C1 [Example E47, 4-amino-3-(N-((1S,3R)-3-hydroxycyclopentyl)sulfamoyl)-N-(3,4,5-trifluorophenyl)benzamide] | > 50 |
| CC(NS(=O)(=O)c1cc(C(=O)Nc2cc(F)c(F)c(F)c2)ccc1N)c1ccccn1 (stereo not shown) [Example E42, 4-amino-3-(N-(1-(pyridin-2-yl)ethyl)sulfamoyl)-N-(3,4,5-trifluorophenyl)benzamide] | < 50 |
| Nc1ccc(C(=O)Nc2cc(F)c(F)c(F)c2)cc1S(=O)(=O)NC1CC1 [Example E20, 4-amino-3-(N-cyclopropylsulfamoyl)-N-(3,4,5-trifluorophenyl)benzamide] | > 50 |
| N#Cc1cc(NC(=O)c2ccc(N)c(S(N)(=O)=O)c2)ccc1F [Example E8, 4-amino-N-(3-cyano-4-fluorophenyl)-3-sulfamoylbenzamide] | > 50 |
| Cc1c(F)cc(NC(=O)c2ccc(N)c(S(N)(=O)=O)c2)cc1F [Example E13, 4-amino-N-(3,5-difluoro-4-methylphenyl)-3-sulfamoylbenzamide] | < 50 |
| Nc1ccc(C(=O)Nc2ccc(F)c(F)c2F)cc1S(N)(=O)=O [Example E14, 4-amino-3-sulfamoyl-N-(2,3,4-trifluorophenyl)benzamide] | < 50 |
| Cc1cc(N)c(S(N)(=O)=O)cc1C(=O)Nc1ccc(Cl)nc1 [Example E66, 4-amino-N-(6-chloropyridin-3-yl)-2-methyl-5-sulfamoylbenzamide] | < 50 |
| Cc1cc(N)c(S(=O)(=O)N[C@@H](C)C(F)(F)F)cc1C(=O)Nc1cc(F)c(F)c(F)c1 [Example E64, (S)-4-amino-2-methyl-N-(3,4,5-trifluorophenyl)-5-(N-(1,1,1-trifluoropropan-2-yl)sulfamoyl)benzamide] | > 50 |
| Nc1ccc(C(=O)Nc2ccc(F)c(C(F)F)c2)cc1S(=O)(=O)N[C@H]1CC[C@H](O)CC1 [Example E44, 4-amino-N-(3-(difluoromethyl)-4-fluorophenyl)-3-(N-((1r,4r)-4-hydroxycyclohexyl)sulfamoyl)benzamide] | > 50 |
| Cc1cc(N)c(S(=O)(=O)N[C@H]2CC[C@H](O)CC2)cc1C(=O)Nc1cc(F)c(F)c(F)c1 [Example E23, trans-4-amino-5-(N-(4-hydroxycyclohexyl)sulfamoyl)-2-methyl-N-(3,4,5-trifluorophenyl)benzamide] | > 50 |
| Cc1cc(NC(=O)c2ccc(N)c(S(=O)(=O)N[C@H]3CC[C@H](O)CC3)c2)ccc1F [Example E46] | > 50 |
| C[C@@H](NS(=O)(=O)c1cc(C(=O)Nc2cc(F)c(F)c(F)c2)ccc1N)C(F)(F)F [Example E18, (R)-4-amino-N-(3,4,5-trifluorophenyl)-3-(N-(1,1,1-trifluoropropan-2-yl)sulfamoyl)benzamide] | > 50 |
| Nc1ccc(C(=O)Nc2ccc(Cl)nc2)cc1S(N)(=O)=O [Example E11, 4-amino-N-(6-chloropyridin-3-yl)-3-sulfamoylbenzamide] | < 50 |

same assay, conditions: Hepatitis B virus; 1 μM, HepAD38, 96 hours; read-out: HBV inhibition % (conc μM)

| SMILES | inhibition at 1 µM [%] |
| --- | --- |
| CNS(=O)(=O)c1cc(C(=O)Nc2cc(F)c(F)c(F)c2)ccc1N [Example E2, 4-amino-3-(N-methylsulfamoyl)-N-(3,4,5-trifluorophenyl)benzamide] | > 50 |
| CC(C)(C)OC(=O)N[C@H]1CCC[C@H]1NS(=O)(=O)c1cc(C(=O)Nc2cc(F)c(F)c(F)c2)ccc1N [Example E52, tert-butyl ((1S,2R)-2-((2-amino-5-((3,4,5-trifluorophenyl)carbamoyl)phenyl)sulfonamido)cyclopentyl)carbamate] | > 50 |
| CC(C)(C)OC(=O)N[C@@H]1CCC[C@@H]1NS(=O)(=O)c1cc(C(=O)Nc2cc(F)c(F)c(F)c2)ccc1N [Example E51, tert-butyl ((1R,2S)-2-((2-amino-5-((3,4,5-trifluorophenyl)carbamoyl)phenyl)sulfonamido)cyclopentyl)carbamate] | > 50 |

same assay, conditions: Hepatitis B virus; HepAD38, 8-point dose-response; read-out: HBV inh EC50

| SMILES | EC50 [µM] |
| --- | --- |
| Nc1cc(Cl)c(C(=O)Nc2cc(F)c(F)c(F)c2)cc1S(N)(=O)=O [Example E5, 4-amino-2-chloro-5-sulfamoyl-N-(3,4,5-trifluorophenyl)benzamide] | < 1 |
| Nc1ccc(S(=O)(=O)N2CCC(O)CC2)cc1C(=O)Nc1cc(F)c(F)c(F)c1 [Example E62, 2-amino-5-((4-hydroxypiperidin-1-yl)sulfonyl)-N-(3,4,5-trifluorophenyl)benzamide] | < 1 |
| Nc1ccc(C(=O)Nc2cc(F)c(F)c(F)c2)cc1S(=O)(=O)N[C@H]1CC[C@H](O)CC1 [Example E21, trans-4-amino-3-(N-(4-hydroxycyclohexyl)sulfamoyl)-N-(3,4,5-trifluorophenyl)benzamide] | < 1 |
